The values that follow come from patent US20230248744A1, “25-HYDROXYVITAMIN D2 AND/OR D3 FOR USE IN OBESITY” (CARBOGEN AMCIS B.V., priority 2020, published 2023).

The conditions of series [1]: vitamin D deficient postmenopausal women; single p.o. bolus of 140 μg of each substance; cited from earlier work.
The conditions of series [2]: single or multiple oral doses of 1250 μg vitamin D, or a dose of 900 μg 25(OH)D3; cited from earlier work.
For series [3] the following is noted: cited from earlier work.
For series [4] the following is noted: cited from earlier work. This is another data set of the same source.
Series [5] in a line: Double-blind randomized crossover pharmacokinetic study, single oral 900 μg vitamin D3 or 25(OH)D3. Conditions: for Cmax / Tmax / concentration at 14 days / half-life / AUC: both sexes, human, serum, po, single oral 900 μg, mean ± SEM; for Cmax / Tmax / half-life / AUC: 900 ug; for concentration at 14 days: 900 μg, read-out: Ctrough (trough level at day 14); for half-life: read-out: T1/2 (elimination half-life) (converted). Format: in vivo, human. On the procedure: The conclusions as presented herein are based on the following experiments: In a double-blinded cross-over study single high dosages (900 μg total in two soft gel capsules containing 450 μg) of either vitamin D3 or 25(OH)D3 were administered to vitamin D-deficient volunteers including healthy controls as well as subjects with a history of malabsorption. At the outset, the BMI was determined. Blood samples were then taken at baseline and at 2, 4, 6, 8, and 12 hours as well as 1, 2, 3, 7, and 14 days after administration (FIG. 2). All the samples were analyzed for their contents in vitamin D3 per se as well as 25(OH)D3. […] In addition, peak levels were more rapidly reached with 25(OH)D3 than with vitamin D3 (see FIG. 5). The immediate increase in serum 25(OH)D3 compared to the delayed increase observed with vitamin D3 supports the concept that 25(OH)D3 is being rapidly absorbed from the small intestine into the portal circulation, whereas vitamin D3 first needs to be incorporated into the chylomicrons which are absorbed into the lymphatic system.
The pharmacokinetic parameters of orally administered 25(OH)D3 and vitamin D3 (both provided for formulation in form of visually identical soft-gel pills) were studied based on the corresponding serum concentration-time curves in healthy adults and adults with a history of intestinal malabsorption (see FIG. 2). Cinical safety has been evaluated by monitoring serum calcium, phosphorus, parathyroid hormone (PTH) and 25(OH)D levels at the beginning and end of the study. Furthermore, the distribution of supplemented 25(OH)D3 (or 25(OH)D2) into adipose tissue and the role it is playing there was also studied.
Serum levels of calcium, phosphorus, albumin, creatinine and intact parathyroid hormone (iPTH) were determined at baseline and at the end of each 14-day pharmacokinetic study (see Table 4). The pharmacokinetic parameters have been determined by evaluating the serum concentration-time curves in patients with malabsorption syndrome and healthy controls (Tables 5 and 6).
The primary outcomes of the study are the serum pharmacokinetic parameters of 25(OH)D3 and vitamin D3 after a single oral administration of 900 μg of each in a double-blind randomized crossover study.
Adult patients (18 years and older) with a history of intestinal malabsorption (n=10) and healthy adult volunteers (n=10); (of both sexes and all ethnicities) has been recruited in this randomized double-blinded crossover study. The BMI has been determined and recorded at baseline. All subjects have been prescreened for 25(OH)D levels to include subjects with 25(OH)D<30 ng/mL. The subjects have been randomized to receive two oral doses of 450 μg taken simultaneously (total 900 μg) of either vitamin D3 or 25(OH)D3. Blood samples were taken at baseline and at 2, 4, 6, 8, 12 hours and days 1, 2, 3, 7 and 14. There was a two weeks washout period before the subject received in a double blinded manner, two oral doses of 450 μg taken simultaneously (total 900 μg) of either 25(OH)D3 or vitamin D3 (depending on which one they took in the randomization) any time after the 2 week washout. Blood samples were taken at baseline and at 2, 4, 6, 8, 12 hours and days 1, 2, 3, 7 and 14 days. Serum levels of calcium, phosphorus, albumin, creatinine, and intact parathyroid hormone (iPTH) were obtained at baseline and at day 14 for each arm (or within a reasonable time if the study participant was unable to come on the exact day).
The individuals participating in the study had, after signing a consent form, been randomized by a computer randomization chart in a blinded manner to receive two oral doses of 450 μg taken simultaneously (total 900 μg) of either vitamin D3 or 25(OH)D3. Blood samples have been taken at baseline and at 2, 4, 6, 8, 12 hours and days 1, 2, 3, 7 and 14. […]

The conditions of series [6]: cited from earlier work. The source holds these as a separate data set.
Setting [7] is: healthy participants with higher BMI (N = 5).
Setting [8] is: healthy participants with lower BMI (N = 5).
Setting [9] is: patients with fat malabsorption (N = 6).

Like-named read-outs stand apart in the source and are kept apart here. Bounds are passed on as bounds.

As a reminder, the Cmax is the maximum level reached in the sampled fluid or tissue. By Tmax is commonly meant the time from dosing to the highest level. The AUC is the area under the concentration-time curve, a measure of exposure. As to `C=C1CC[C@H](O)C/C1=C/C=C1\CCC[C@]2(C)[C@@H]([C@H](C)CCCC(C)(C)O)CC[C@@H]12` [25-hydroxyvitamin D3], the “Cmax increase over baseline of 25(OH)D3” value in series [1] is on record as 24.7 ng/mL. The reports of toxicity entry in series [2] is “toxicity has never been reported”. For the same compound, the “increase of 25(OH)D by 24 hours” value in series [3] (after bolus intravenous dose) is recorded as 40 ng/mL. For the same compound, the toxicity result in series [3] (bolus intravenous 448 μg or 900 μg slow release) is given as “No toxicity was observed”. Further, the “increase of peak concentration of 25(OH)D above baseline” value in series [3] (bolus intravenous dose of 448 μg) is recorded as “approximately 110 ng/mL”. The “toxicity in pharmacokinetic study” value in series [3] (oral single dose of 900 μg) was “did not show any untoward toxicity”. The “power of oral calcifediol relative to oral cholecalciferol (vitamin D3)” value in series [4] is recorded as “three- to five-time more powerful”. In addition, the “time at which the peak of the serum concentration is reached” value in series [5] (FIG. 5, oral 900 μg) was roughly 8 h. For the same compound, the “bioavailability in subjects with a history of vitamin D/fat malabsorption” value in series [5] (after administration of the respective product, FIGS. 3a and b) is given as “almost normal”. Moreover, the Cmax stood at 23.1 ± 4.6 ng/mL in series [5] (healthy participants (N = 10)), 21.4 ± 8 ng/mL in series [5] (setting [7]), 24.8 ± 5.5 ng/mL in series [5] (setting [8]) and 23.2 ± 6.8 ng/mL in series [5] (setting [9]). Moreover, the Tmax came to 11.2 ± 4.1 h in series [5] (healthy participants (N = 10)), 15.2 ± 8.2 h in series [5] (setting [7]), 7.2 ± 0.5 h in series [5] (setting [8]) and 5.3 ± 0.7 h in series [5] (setting [9]). Also, the concentration at 14 days in series [5] (healthy participants (N = 10)) came to 6.1 ± 1.3 ng/mL; in series [5] (setting [7]), 4.6 ± 1.4 ng/mL; in series [5] (setting [8]) it was 7.6 ± 2.1 ng/mL; in series [5] (setting [9]), 6.7 ± 1.5 ng/mL. Further, the half-life in series [5] (healthy participants (N = 10)) was 2.52 ± 0.329 days; in series [5] (setting [7]) it was 2.29 ± 0.446 days; in series [5] (setting [8]), 2.76 ± 0.513 days; in series [5] (setting [9]), 2.74 ± 1.25 days. Also, the AUC turned out to be 3130 ± 545 ng·h/mL in series [5] (healthy participants (N = 10), serum level of the administered substance); 2620 ± 855 ng·h/mL in series [5] (setting [7]); 3630 ± 690 ng·h/mL in series [5] (setting [8]); 2670 ± 735 ng·h/mL in series [5] (patients with fat malabsorption (N = 6), serum level of the administered substance).
Consider vitamin D, for which the “peak serum vitamin D concentration” value in series [6] (single oral dose of 1.25 mg (50'000 IU), baseline less than 5 ng/mL) is on record as “over 50 ng/mL”. For the same compound, in series [6] (single oral dose of 1.25 mg), the “time of fall of serum vitamin D to baseline levels” value was no more than 3 days and the “time of peak serum vitamin D concentration” value is listed as no more than 12 h.
Take `C=C1CC[C@H](O)C/C1=C/C=C1\CCC[C@]2(C)[C@@H]([C@H](C)/C=C/[C@H](C)C(C)C)CC[C@@H]12` [vitamin D2, ergocalciferol]: the “serum vitamin D concentration reached” value in series [6] (five of the seven patients with intestinal fat malabsorption, oral 50,000 IU) is on record as no more than 10 ng/mL.
